One test deals with T1, TycC6 C-A-T tridomain (Brevibacillus parabrevis, UniProt O30409).
T1 construct: gene tycC; ppant installed by Sfp
T1 sequence (O30409 5200-6255 limits assumed): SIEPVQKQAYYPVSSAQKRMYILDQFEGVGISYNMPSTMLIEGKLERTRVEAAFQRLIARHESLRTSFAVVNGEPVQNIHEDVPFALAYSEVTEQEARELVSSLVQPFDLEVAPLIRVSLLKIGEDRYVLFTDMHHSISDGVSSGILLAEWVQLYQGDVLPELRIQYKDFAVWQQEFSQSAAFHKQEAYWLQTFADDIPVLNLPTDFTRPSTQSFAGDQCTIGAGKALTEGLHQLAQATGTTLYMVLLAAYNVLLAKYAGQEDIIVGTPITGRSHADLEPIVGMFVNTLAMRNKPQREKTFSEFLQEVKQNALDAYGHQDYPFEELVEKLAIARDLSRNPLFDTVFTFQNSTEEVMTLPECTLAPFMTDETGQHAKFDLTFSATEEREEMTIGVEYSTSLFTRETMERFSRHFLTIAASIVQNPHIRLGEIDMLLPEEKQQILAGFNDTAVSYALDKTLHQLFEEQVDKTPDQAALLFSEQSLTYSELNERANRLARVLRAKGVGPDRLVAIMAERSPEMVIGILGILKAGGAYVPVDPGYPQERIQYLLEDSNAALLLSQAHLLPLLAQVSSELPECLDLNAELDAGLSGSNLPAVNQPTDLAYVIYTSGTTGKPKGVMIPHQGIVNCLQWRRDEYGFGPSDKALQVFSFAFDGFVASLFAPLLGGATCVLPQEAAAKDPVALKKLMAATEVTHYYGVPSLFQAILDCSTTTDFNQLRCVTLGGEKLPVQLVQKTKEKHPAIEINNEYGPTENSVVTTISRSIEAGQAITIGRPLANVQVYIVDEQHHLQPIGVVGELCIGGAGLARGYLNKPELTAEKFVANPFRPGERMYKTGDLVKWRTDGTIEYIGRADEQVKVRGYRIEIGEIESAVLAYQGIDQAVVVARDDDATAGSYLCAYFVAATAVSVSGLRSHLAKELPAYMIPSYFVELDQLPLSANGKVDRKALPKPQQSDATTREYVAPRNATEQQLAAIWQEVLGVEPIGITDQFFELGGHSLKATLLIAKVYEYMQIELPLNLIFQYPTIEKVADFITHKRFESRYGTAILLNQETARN
The test is described as follows: yeast surface display loading assay, click biotinylation, flow cytometry. In kind it is cell-based. The conditions noted are these: 20 and 50 mM pGly, 0.1 mM ATP, 1 mM MgCl2, pH 7.4, 25 C; covalent loading on ppant of T domain; modest efficiency. For orientation: A flow cytometer gives signals particle by particle.

The target in another test is T2, TycB2 A-T bidomain (Brevibacillus parabrevis, UniProt O30408, M1767A/M1802I, form not given).
T2 construct: gene tycB; ppant installed by Sfp
The test is described as above. The class given is cell-based. The following applies: 0.5 mM pPhe with 0.5 mM L-Phe as competitor, 0.1 mM ATP, pH 7.4, 25 C; covalent loading on ppant of T domain.

T2 sequence (O30408 1530-2090 M1767A/M1802I, form open): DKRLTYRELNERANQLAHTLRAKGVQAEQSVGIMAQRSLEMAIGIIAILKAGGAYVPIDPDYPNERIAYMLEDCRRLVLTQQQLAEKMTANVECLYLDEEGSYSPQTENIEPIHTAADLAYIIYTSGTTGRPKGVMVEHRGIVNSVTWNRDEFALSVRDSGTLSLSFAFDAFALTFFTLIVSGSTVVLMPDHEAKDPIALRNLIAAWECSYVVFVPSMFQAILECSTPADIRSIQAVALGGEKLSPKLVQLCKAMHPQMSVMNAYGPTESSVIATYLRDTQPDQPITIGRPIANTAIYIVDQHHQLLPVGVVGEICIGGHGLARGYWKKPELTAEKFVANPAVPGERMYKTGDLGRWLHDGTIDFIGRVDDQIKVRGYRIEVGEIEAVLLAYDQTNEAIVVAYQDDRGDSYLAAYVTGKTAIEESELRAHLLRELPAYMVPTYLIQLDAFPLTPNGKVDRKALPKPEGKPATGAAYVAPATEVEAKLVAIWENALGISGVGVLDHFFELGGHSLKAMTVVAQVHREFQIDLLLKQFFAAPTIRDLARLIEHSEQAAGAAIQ

For the compound `C#CCC(N)C(=O)O` (centres unmarked) [pGly, propargyl glycine], the “yeast surface display loading assay, click biotinylation, flow cytometry” value at TycC6 C-A-T tridomain is “the displayed module was found to activate pGly in a concentration-dependent manner”.

In the case of `C#CCOc1ccc(C[C@H](N)C(=O)O)cc1` [pPhe, 4-propargyloxy-L-phenylalanine], the “yeast surface display loading assay, click biotinylation, flow cytometry” value on TycB2 A-T bidomain is “the variant with the M1768A and M1803I mutations was the most active and selective”.

(Values after publication PMC10728897, “High-Throughput Engineering of Nonribosomal Extension Modules” (ACS Chemical Biology, 2023).)
